This passage reports IC50 and Ki results from patent US5486511A, “4-amino-17β-(cyclopropyloxy)androst-4-en-3-one, 4-amino-17β-(cyclopropylamino)androst-4-en-3-one and related compounds as C17-20 lyase and 5α-reductase” (Merrell Dow Pharmaceuticals Inc., priority 1994, dated 1996).

The experiment addresses T1, cynomolgus monkey 5α-reductase (Macaca fascicularis, UniProt Q28892).
T1 construct: microsomes were isolated from cynomolgus monkey prostate tissue; from tissue; host or cells: cynomolgus monkey prostate microsomes
T1 sequence (Q28892 1-254): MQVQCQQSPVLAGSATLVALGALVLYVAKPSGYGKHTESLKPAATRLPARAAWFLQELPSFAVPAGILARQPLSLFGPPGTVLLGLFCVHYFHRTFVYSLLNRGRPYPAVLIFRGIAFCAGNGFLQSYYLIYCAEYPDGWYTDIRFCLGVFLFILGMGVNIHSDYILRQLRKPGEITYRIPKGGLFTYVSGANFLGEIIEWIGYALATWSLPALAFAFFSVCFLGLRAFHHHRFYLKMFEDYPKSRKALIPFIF
The experiment in a line: Inhibition of cynomolgus monkey prostatic 5α-reductase (prostate microsomes). The following applies: for IC50: testosterone at Km level. Type of experiment: biochemical. Here is the method: The activity of the present compounds as inhibitors of steroid 5α-reductase was determined using microsomal preparations of the 5α-reductase enzyme from laboratory prostate tissue. Specifically, microsomes were isolated from cynomolgus monkey prostate tissue. Protein concentration of the microsomal preparations was determined prior to use of the samples. Individual assays of cynomolgus monkey prostatic 5α-reductase activity contained 0.1M potassium phosphate-sodium citrate buffer (K-Na buffer, 1:1), pH 5.6, 0.1% bovine serum albumin (w/v), 1.0 mM sodium EDTA, 7 to 96 μg of microsomal protein, 1.0 mM NADPH, 5.0 mM glucose-6-phosphate, 1 IU/mL glucose-6 -phosphate dehydrogenase, [1,2-^3 H]-testosterone (0.15 μCi), unlabeled testosterone to yield the desired concentration of substrate, and inhibitor which was dissolved in dimethyl sulfoxide (DMSO) then diluted in K-Na buffer to yield a final assay concentration of 0.1% (v/v) DMSO. The same buffer and DMSO without inhibitor were used in control assays. Background radioactivity was determined from assays containing all components except enzyme. Assays were performed in duplicate. The reaction was initiated by the addition of testosterone and incubated for 20 minutes at 25° C. in a Dubnoff® shaker incubator. Compound to be tested for inhibition was added simultaneously with testosterone. The total volume of the assay was 100 μL.
The 5α-reductase reactions were terminated by the addition of 5 mL chloroform-methanol (2:1) and 0.9 mL water. The carrier steroids were added in the form of 2.5 μg each of testosterone, dihydrotestosterone, and 3,17-androstanediol. […]

As for `C[C@]12CC[C@H]3[C@@H](C=CC4=C(N)C(=O)CC[C@@]43C)[C@@H]1CC[C@@H]2OC1CC1` [Compound 1, 4-Amino-17β-(cyclopropyloxy)androsta-4,6-dien-3-one], the IC50 stood at 2.8 nM.
`C[C@]12CC[C@H]3[C@@H](CCC4=C(N)C(=O)CC[C@@]43C)[C@@H]1CC[C@@H]2OC1CC1` [Compound 2, 4-Amino-17β-(cyclopropyloxy)androst-4-en-3-one] displayed an IC50 of 7.4 nM. Where the note is “testosterone 0.5 Km to 8 Km”, this compound yielded a Ki of 7.8 ± 0.7 nM.
